Laboratory results: patent publication US7854753B2, “Photokinetic delivery of biologically active substances using pulsed incoherent light” (Photokinetix, Inc., priority 2002, dated 2010)

Experiments:
[1] = Franz skin diffusion cell permeation (percutaneous absorption) under ambient, natural or pulsed incoherent LED light; settings: for Permeation Dark: ambient light absent; for Ctrl / Ctrl-TiO2: Table 8 (405 nm series); for Ctrl: ambient light only; for Ctrl-TiO2 / Effect of 2% (w/w) TiO2 on permeation: ambient light; for Ctrl-TiO2: 2% TiO2; for Ctrl-TiO2/1.7 / Ctrl-TiO2/9.7 / Ctrl-TiO2/24: Table 8, 405 nm series; for Ctrl-TiO2/1.7: 2% TiO2, 1.7 cps; for Ctrl-TiO2/9.7: 2% TiO2, 9.7 cps; for Ctrl-TiO2/24: 2% TiO2, 24 cps; for 405/1.7 / 405/9.7 / 405/24: Table 8; for 405/24: 24 cps; for Permeation Ctrl: ambient cool fluorescent light only, 260-750 nm, 120 cps; for Permeation Ctrl-TiO2: ambient fluorescent light, sample with 2% (w/w) rutile TiO2; for Effect of 2% (w/w) TiO2 on permeation: FIG. 4
[2] = volume of water for 1 g; cited from earlier work

Cc1ncc(CO)c(CO)c1O [Compound 5, Pyridoxine]
Permeation Dark ([1]; Dark control): 261.30 μg/0.64 cm^2/25 hrs | Ctrl [1]: 32.90 | Ctrl-TiO2 [1]: 806.25 | Ctrl-TiO2/1.7 [1]: 537.60 | Ctrl-TiO2/9.7 [1]: 862.75 | Ctrl-TiO2/24 [1]: 0.00 | 405/1.7 ([1]; 405 nm, 1.7 cps): 179.38 | 405/9.7 ([1]; 405 nm, 9.7 cps): 0.00 | 405/24 ([1]; 405 nm): 187.81 | Permeation Ctrl [1]: 32.90 μg/0.64 cm^2/25 hrs | Permeation Ctrl-TiO2 [1]: 806.20 μg/0.64 cm^2/25 hrs | Effect of 2% (w/w) TiO2 on permeation [1]: significant effect | Water Solubility (1 g) [2]: 4.5 mL

O=C(O)c1cccnc1 [Compound 6, Nicotinic acid]
Permeation Dark ([1]; Dark control): 976.30 μg/0.64 cm^2/25 hrs | Ctrl [1]: 0.00 | Ctrl-TiO2 [1]: 1371.00 | Permeation Ctrl [1]: 0.00 μg/0.64 cm^2/25 hrs | Permeation Ctrl-TiO2 [1]: 1371.00 μg/0.64 cm^2/25 hrs | Effect of 2% (w/w) TiO2 on permeation [1]: significant effect | Water Solubility (1 g) [2]: 60 mL

Cn1cnc2c1c(=O)[nH]c(=O)n2C [Compound 7, Theobromine]
Water Solubility (1 g) [2]: 2000 mL

Cn1c(=O)c2[nH]cnc2n(C)c1=O [Compound 8, Theophylline]
Water Solubility (1 g) [2]: 120 mL

NC(=O)c1cccnc1 [Compound 10, Nicotinamide]
Permeation Dark ([1]; Dark control): 543.70 μg/0.64 cm^2/25 hrs | Ctrl [1]: 42.72 | Ctrl-TiO2 [1]: 851.83 | Ctrl-TiO2/1.7 [1]: 668.31 | Ctrl-TiO2/9.7 [1]: 1387.33 | Ctrl-TiO2/24 [1]: 0.00 | 405/1.7 ([1]; 405 nm, 1.7 cps): 26.22 | 405/9.7 ([1]; 405 nm, 9.7 cps): 32.69 | 405/24 ([1]; 405 nm): 0.00 | Permeation Ctrl [1]: 42.72 μg/0.64 cm^2/25 hrs | Permeation Ctrl-TiO2 [1]: 851.80 μg/0.64 cm^2/25 hrs | Effect of 2% (w/w) TiO2 on permeation [1]: significant effect | Water Solubility (1 g) [2]: 1 mL

C[C@]12CCC(=O)C=C1CC[C@@H]1[C@@H]2CC[C@@]2(C)[C@H]1CC[C@]2(C)O [Compound 17, Methyl Testosterone]
Permeation 350 ([1]; 350 nm LED, pulse rate 24 cps, 75% duty cycle): 153.25 μg/0.64 cm^2/25 hrs | Permeation 1.7 cps ([1]; 350 nm, 1.7 cps): 12.84 μg/0.64 cm^2/25 hrs | Permeation 9.7 cps ([1]; 350 nm, 9.7 cps): 29.57 μg/0.64 cm^2/25 hrs | Permeation 405 ([1]; 405 nm LED, pulse rate 24 cps, 75% duty cycle): 25.37 μg/0.64 cm^2/25 hrs | Permeation Dark ([1]; Dark control): 0.00 μg/0.64 cm^2/25 hrs | Permeation Ctrl [1]: 0.00 μg/0.64 cm^2/25 hrs | Permeation Ctrl-TiO2 [1]: 0.00 μg/0.64 cm^2/25 hrs | Water Solubility (1 g) [2]: Insoluble

C[C@@H]1[C@H](O)[C@@H](C)/C=C/C=C/C=C/C=C/C=C/C=C/C=C/[C@H](O[C@@H]2O[C@H](C)[C@@H](O)[C@H](N)[C@@H]2O)C[C@@H]2O[C@](O)(C[C@@H](O)C[C@@H](O)[C@H](O)CC[C@@H](O)C[C@@H](O)CC(=O)O[C@H]1C)C[C@H](O)[C@H]2C(=O)O [Compound 21, Amphotericin B]
% Permeation (percent increase or decrease vs dark baseline, equation 1) ([1]; 350 + TiO2, 8 cps vs Dark-TiO2): 49.51% | % Permeation (percent increase or decrease vs dark baseline, equation 1) ([1]; 350 + TiO2, 24 cps vs Dark-TiO2): 71.32% | % Permeation (percent increase or decrease vs dark baseline, equation 1) ([1]; 350 + TiO2, 80 cps vs Dark-TiO2): 18.24% | Permeation ([1]; 350 + TiO2, pulse rate 8 cps): 1.54 μg/cm^2/24 hrs | Permeation ([1]; 350 + TiO2, pulse rate 24 cps): 2.33 μg/cm^2/24 hrs | Permeation ([1]; 350 + TiO2, pulse rate 80 cps): 2.01 μg/cm^2/24 hrs | Permeation ([1]; 350 nm LED, pulse rate 8 cps): 1.19 μg/cm^2/24 hrs | Permeation ([1]; 350 nm LED, pulse rate 24 cps): 3.35 μg/cm^2/24 hrs | Permeation ([1]; 350 nm LED, pulse rate 80 cps): 2.81 μg/cm^2/24 hrs | % Permeation (percent increase or decrease vs dark baseline, equation 1) ([1]; 350 nm, 8 cps vs Dark): 60.81% | % Permeation (percent increase or decrease vs dark baseline, equation 1) ([1]; 350 nm, 24 cps vs Dark): 66.67% | % Permeation (percent increase or decrease vs dark baseline, equation 1) ([1]; 350 nm, 80 cps vs Dark): −11.36% | % Permeation (percent increase or decrease vs dark baseline, equation 1) ([1]; 390 + TiO2, 8 cps vs Dark-TiO2): 91.26% | % Permeation (percent increase or decrease vs dark baseline, equation 1) ([1]; 390 + TiO2, 24 cps vs Dark-TiO2): 48.53% | % Permeation (percent increase or decrease vs dark baseline, equation 1) ([1]; 390 + TiO2, 80 cps vs Dark-TiO2): 241.18% | Permeation ([1]; 390 + TiO2, pulse rate 8 cps): 1.97 μg/cm^2/24 hrs | Permeation ([1]; 390 + TiO2, pulse rate 24 cps): 2.02 μg/cm^2/24 hrs | Permeation ([1]; 390 + TiO2, pulse rate 80 cps): 5.80 μg/cm^2/24 hrs | Permeation ([1]; 390 nm LED, pulse rate 8 cps): 1.11 μg/cm^2/24 hrs | Permeation ([1]; 390 nm LED, pulse rate 24 cps): 1.88 μg/cm^2/24 hrs | Permeation ([1]; 390 nm LED, pulse rate 80 cps): 3.94 μg/cm^2/24 hrs | % Permeation (percent increase or decrease vs dark baseline, equation 1) ([1]; 390 nm, 8 cps vs Dark): 50.00% | % Permeation (percent increase or decrease vs dark baseline, equation 1) ([1]; 390 nm, 24 cps vs Dark): −6.47% | % Permeation (percent increase or decrease vs dark baseline, equation 1) ([1]; 390 nm, 80 cps vs Dark): 24.29% | % Permeation (percent increase or decrease vs dark baseline, equation 1) ([1]; 405 + TiO2, 8 cps vs Dark-TiO2): 33.01% | % Permeation (percent increase or decrease vs dark baseline, equation 1) ([1]; 405 + TiO2, 24 cps vs Dark-TiO2): 817.65% | % Permeation (percent increase or decrease vs dark baseline, equation 1) ([1]; 405 + TiO2, 80 cps vs Dark-TiO2): 180.59% | Permeation ([1]; 405 + TiO2, pulse rate 8 cps): 1.37 μg/cm^2/24 hrs | Permeation ([1]; 405 + TiO2, pulse rate 24 cps): 12.48 μg/cm^2/24 hrs | Permeation ([1]; 405 + TiO2, pulse rate 80 cps): 4.77 μg/cm^2/24 hrs | Permeation ([1]; 405 nm LED, pulse rate 8 cps): 1.26 μg/cm^2/24 hrs | Permeation ([1]; 405 nm LED, pulse rate 24 cps): 1.83 μg/cm^2/24 hrs | Permeation ([1]; 405 nm LED, pulse rate 80 cps): 7.23 μg/cm^2/24 hrs | % Permeation (percent increase or decrease vs dark baseline, equation 1) ([1]; 405 nm, 8 cps vs Dark): 70.27% | % Permeation (percent increase or decrease vs dark baseline, equation 1) ([1]; 405 nm, 24 cps vs Dark): −8.96% | % Permeation (percent increase or decrease vs dark baseline, equation 1) ([1]; 405 nm, 80 cps vs Dark): 129.65% | % Permeation (percent increase or decrease vs dark baseline, equation 1) ([1]; 450 + TiO2, 8 cps vs Dark-TiO2): 110.68% | % Permeation (percent increase or decrease vs dark baseline, equation 1) ([1]; 450 + TiO2, 24 cps vs Dark-TiO2): 8.82% | % Permeation (percent increase or decrease vs dark baseline, equation 1) ([1]; 450 + TiO2, 80 cps vs Dark-TiO2): 198.82% | Permeation ([1]; 450 + TiO2, pulse rate 8 cps): 2.17 μg/cm^2/24 hrs | Permeation ([1]; 450 + TiO2, pulse rate 24 cps): 1.48 μg/cm^2/24 hrs | Permeation ([1]; 450 + TiO2, pulse rate 80 cps): 5.08 μg/cm^2/24 hrs | Permeation ([1]; 450 nm LED, pulse rate 8 cps): 0.80 μg/cm^2/24 hrs | Permeation ([1]; 450 nm LED, pulse rate 24 cps): 1.19 μg/cm^2/24 hrs | Permeation ([1]; 450 nm LED, pulse rate 80 cps): 9.26 μg/cm^2/24 hrs | % Permeation (percent increase or decrease vs dark baseline, equation 1) ([1]; 450 nm, 8 cps vs Dark): 8.11% | % Permeation (percent increase or decrease vs dark baseline, equation 1) ([1]; 450 nm, 24 cps vs Dark): −40.80% | % Permeation (percent increase or decrease vs dark baseline, equation 1) ([1]; 450 nm, 80 cps vs Dark): 192.11% | Permeation ([1]; Dark control, 8 cps series): 0.74 μg/cm^2/24 hrs | Permeation ([1]; Dark control, 24 cps series): 2.01 μg/cm^2/24 hrs | Permeation ([1]; Dark control, 80 cps series): 3.17 μg/cm^2/24 hrs | Permeation ([1]; Dark-TiO2 control (2% TiO2), 8 cps series): 1.03 μg/cm^2/24 hrs | Permeation ([1]; Dark-TiO2 control (2% TiO2), 24 cps series): 1.36 μg/cm^2/24 hrs | Permeation ([1]; Dark-TiO2 control (2% TiO2), 80 cps series): 1.70 μg/cm^2/24 hrs | Permeation ([1]; Day (natural daylight, not pulsed), control of the 8 cps series): 0.84 μg/cm^2/24 hrs | Permeation ([1]; Day (natural daylight, not pulsed), control of the 24 cps series): 1.59 μg/cm^2/24 hrs | Permeation ([1]; Day (natural daylight, not pulsed), control of the 80 cps series): 2.52 μg/cm^2/24 hrs | % Permeation (percent increase or decrease vs dark baseline, equation 1) ([1]; Day vs Dark, 8 cps series): 13.51% | % Permeation (percent increase or decrease vs dark baseline, equation 1) ([1]; Day vs Dark, 24 cps series): −20.90% | % Permeation (percent increase or decrease vs dark baseline, equation 1) ([1]; Day vs Dark, 80 cps series): −20.50% | Permeation ([1]; Day-TiO2 (natural daylight, 2% TiO2, not pulsed), control of the 8 cps series): 0.70 μg/cm^2/24 hrs | Permeation ([1]; Day-TiO2 (natural daylight, 2% TiO2, not pulsed), control of the 24 cps series): 0.89 μg/cm^2/24 hrs | Permeation ([1]; Day-TiO2 (natural daylight, 2% TiO2, not pulsed), control of the 80 cps series): 4.09 μg/cm^2/24 hrs | % Permeation (percent increase or decrease vs dark baseline, equation 1) ([1]; Day-TiO2 vs Dark-TiO2, 8 cps series): −32.04% | % Permeation (percent increase or decrease vs dark baseline, equation 1) ([1]; Day-TiO2 vs Dark-TiO2, 24 cps series): −34.56% | % Permeation (percent increase or decrease vs dark baseline, equation 1) ([1]; Day-TiO2 vs Dark-TiO2, 80 cps series): 140.59%
